Experimental data published in US8178490B2, “Polybasic bacterial efflux pump inhibitors and therapeutic uses thereof” (priority 2007, dated 2012).

Assay: Rat serum pharmacokinetics after 1.5-hour IV infusion
Format: in vivo
Conditions: two-compartment model; for Cmax / clearance: 1.5-hour IV infusion in 0.9% saline, dose (mg/kg) differs per compound; for clearance: read-out: Clearance (free drug clearance) (converted); for pharmacokinetic profile: […] IV infusion in 0.9% saline, total dose 2, 5, 10 or 20 mg/kg
Protocol: In the experiment depicted in Table 7, above, rat serum pharmacokinetics of selected inhibitor compounds was evaluated after 1.5-hour IV infusion of 1.5 ml solution of corresponding efflux pump inhibitor in 0.9% saline. Depending on the concentration used the total infused dose was 2, 5, 10 or 20 mg/kg. A two-compartment model was used to fit the data and calculate PK parameters.

Row | Cmax | clearance | SMILES | pharmacokinetic profile
1 | 22900 ng/mL | 31.3 mL/min/kg | Cl.Cl.Cl.Cl.NCCN(CCN)C(=O)C[C@H](N)C(=O)N[C@H](C(=O)Nc1cnc2ccccc2c1)C(O)c1ccc(C(F)(F)F)cc1 (stereo partly drawn) [Compound 169, 3-[(1S)-2-[bis(2-azaniumylethyl)carbamoyl]-1-{[(1S)-1-carbamoyl-2-hydroxy-2-[4-(trifluoromethyl)phenyl]ethyl]carbamoyl}ethan-1-aminium]quinolin-1-ium tetrachloride] | –
2 | 8100 ng/mL | 28.3 mL/min/kg | Cl.Cl.Cl.Cl.NCCN(CCN)C(=O)CC[C@H](N)C(=O)N[C@H](CCc1ccccc1)C(=O)Nc1cnc2ccccc2c1 [Compound 47, 3-[(1S)-3-[bis(2-azaniumylethyl)carbamoyl]-1-{[(1R)-1-carbamoyl-3-phenylpropyl]carbamoyl}propan-1-aminium]quinolin-1-ium tetrachloride] | –
3 | 2250 ng/mL | 217 mL/min/kg | NCCN(CCN)C(=O)C[C@H](N)C(=O)N[C@@H](CCc1ccccc1)C(=O)Nc1cnc2ccccc2c1 [Compound 2, 3-[(1S)-2-[bis(2-azaniumylethyl)carbamoyl]-1-{[(1S)-1-carbamoyl-3-phenylpropyl]carbamoyl}ethan-1-aminium]quinolin-1-ium tetrachloride] | particularly attractive pharmacokinetic profiles
4 | 2500 ng/mL | 28 mL/min/kg | Cc1cc(C)c(NC(=O)[C@H](CCc2ccccc2)NC(=O)[C@@H](N)CC(=O)N(CCN)CCN)c(C)c1 [Compound 88] | –
5 | 13900 ng/mL | 50 mL/min/kg | CCOc1ccc(NC(=O)[C@H](CCc2ccccc2)NC(=O)[C@@H](N)CC(=O)N(CCN)CCN)cc1 [Compound 85] | –
6 | 690 ng/mL | 93.3 mL/min/kg | CC(C)Oc1ccc(NC(=O)[C@H](CCc2ccccc2)NC(=O)[C@@H](N)CC(=O)N(CCN)CCN)c(F)c1 [Compound 215] | –
7 | 21900 ng/mL | 30 mL/min/kg | Cl.Cl.Cl.Cl.NCCN(CCN)C(=O)CC[C@H](N)C(=O)N[C@H](Cc1ccc(OC(F)(F)F)cc1)C(=O)Nc1cnc2ccccc2c1 [Compound 31, 3-[(1S)-3-[bis(2-azaniumylethyl)carbamoyl]-1-{[(1R)-1-carbamoyl-2-[4-(trifluoromethoxy)phenyl]ethyl]carbamoyl}propan-1-aminium]quinolin-1-ium tetrachloride] | –
8 | 1220 ng/mL | 103 mL/min/kg | NCCN(CCN)C(=O)C[C@H](N)C(=O)N[C@@H](CCc1ccccc1)C(=O)Nc1cccc(C(F)(F)F)c1 [Compound 90] | –
9 | 7610 ng/mL | 56 mL/min/kg | Cl.Cl.Cl.Cl.N[C@@H]1CN(C(=O)CC[C@H](N)C(=O)N[C@H](Cc2ccc(C(F)(F)F)cc2)C(=O)Nc2cnc3ccccc3c2)C[C@@H]1N [Compound 30, 3-[(1S)-1-{[(1R)-1-carbamoyl-2-[4-(trifluoromethyl)phenyl]ethyl]carbamoyl}-4-[(3R,4S)-3,4-diazaniumylpyrrolidin-1-yl]-4-oxobutan-1-aminium]quinolin-1-ium tetrachloride] | –
10 | 2980 ng/mL | 51.7 mL/min/kg | Cc1cc(CNC(=O)[C@H](CCc2ccccc2)NC(=O)[C@@H](N)CC(=O)N(CCN)CCN)c(C(F)(F)F)o1 [Compound 67] | –
11 | 2390 ng/mL | 70.2 mL/min/kg | NCCN(CCN)C(=O)C[C@H](N)C(=O)N[C@@H](CCc1ccccc1)C(=O)Nc1ccc2cnccc2c1 [Compound 49] | –
12 | 1590 ng/mL | 66.2 mL/min/kg | NCCN(CCN)C(=O)C[C@H](N)C(=O)N[C@@H](CCc1ccccc1)C(=O)NCc1c(Cl)cccc1Cl [Compound 224] | –
13 | 1540 ng/mL | 92.2 mL/min/kg | CC(C)Oc1ccc(NC(=O)[C@H](CCc2ccccc2)NC(=O)[C@@H](N)CC(=O)N(CCN)CCN)cc1 [Compound 214] | –
14 | 2440 ng/mL | 177 mL/min/kg | CCOc1c(F)cc(NC(=O)[C@H](CCc2ccccc2)NC(=O)[C@@H](N)CC(=O)N(CCN)CCN)cc1F.Cl.Cl.Cl [Compound 352, (1S)-2-[bis(2-azaniumylethyl)carbamoyl]-1-{[(1S)-1-[(4-ethoxy-3,5-difluorophenyl)carbamoyl]-3-phenylpropyl]carbamoyl}ethan-1-aminium trichloride] | –
15 | 1270 ng/mL | 88.3 mL/min/kg | NCCN(CCN)C(=O)C[C@H](N)C(=O)N[C@@H](CCc1ccccc1)C(=O)NCc1ccc(OC2CCOCC2)cc1 [Compound 133] | –
16 | 8100 ng/mL | 45.3 mL/min/kg | Cl.Cl.Cl.Cl.N[C@@H](CCC(=O)N1C[C@H](N)[C@@H](N)C1)C(=O)N[C@H](CCc1ccccc1)C(=O)Nc1cnc2ccccc2c1 [Compound 41, 3-[(1S)-1-{[(1R)-1-carbamoyl-3-phenylpropyl]carbamoyl}-4-[(3S,4S)-3,4-diazaniumylpyrrolidin-1-yl]-4-oxobutan-1-aminium]quinolin-1-ium tetrachloride] | –
17 | 1750 ng/mL | 30.2 mL/min/kg | NCCN(CCN)C(=O)C[C@H](N)C(=O)N[C@@H](CCc1ccccc1)C(=O)NCc1ccc(OC(F)(F)F)cc1 [Compound 95] | –

Row | Cmax | clearance | SMILES | pharmacokinetic profile
18 | 4920 ng/mL | 118 mL/min/kg | COc1cc(OC(F)(F)F)ccc1CNC(=O)[C@H](CCc1ccccc1)NC(=O)[C@@H](N)CC(=O)N(CCN)CCN [Compound 233] | –
19 | 2960 ng/mL | 63.2 mL/min/kg | Cc1ccc(NC(=O)[C@H](CCc2ccccc2)NC(=O)[C@@H](N)CC(=O)N(CCN)CCN)cc1 [Compound 77] | –
20 | 5050 ng/mL | 43 mL/min/kg | NCCN(CCN)C(=O)C[C@H](N)C(=O)N[C@@H](CCc1ccccc1)C(=O)NCc1ccc(F)c(C(F)(F)F)c1 [Compound 102] | –
21 | 7200 ng/mL | 26 mL/min/kg | Cl.Cl.Cl.Cl.NCCN(CCN)C(=O)C[C@H](N)C(=O)N[C@H](CCc1ccccc1)C(=O)Nc1cnc2ccccc2c1 [Compound 48, 3-[(1S)-2-[bis(2-azaniumylethyl)carbamoyl]-1-{[(1R)-1-carbamoyl-3-phenylpropyl]carbamoyl}ethan-1-aminium]quinolin-1-ium tetrachloride] | particularly attractive pharmacokinetic profiles
22 | 11000 ng/mL | 64.3 mL/min/kg | NCCN(CCN)C(=O)C[C@H](N)C(=O)N[C@@H](CCc1ccccc1)C(=O)Nc1cc(Cl)c(Cl)cc1Cl [Compound 87] | –
23 | 3850 ng/mL | 51.8 mL/min/kg | Cc1ccc(C)c(CNC(=O)[C@H](CCc2ccccc2)NC(=O)[C@@H](N)CC(=O)N(CCN)CCN)c1 [Compound 96] | –
24 | 1890 ng/mL | 91.2 mL/min/kg | NCCN(CCN)C(=O)C[C@H](N)C(=O)N[C@@H](CCc1ccccc1)C(=O)NCc1ccc(Oc2ccccn2)cc1 [Compound 110] | –
25 | 340 ng/mL | 78.5 mL/min/kg | CCCc1ccccc1NC(=O)[C@H](CCc1ccccc1)NC(=O)[C@@H](N)CC(=O)N(CCN)CCN [Compound 271] | –
26 | 5030 ng/mL | 48.2 mL/min/kg | Cl.Cl.Cl.Cl.NCCN(CCN)C(=O)C[C@H](N)C(=O)N[C@H](Cc1ccc(C(F)(F)F)cc1)C(=O)Nc1cnc2ccccc2c1 [Compound 359, 3-[(1S)-2-[bis(2-azaniumylethyl)carbamoyl]-1-{[(1R)-1-carbamoyl-2-[4-(trifluoromethyl)phenyl]ethyl]carbamoyl}ethan-1-aminium]quinolin-1-ium tetrachloride] | –
27 | 4000 ng/mL | 13.5 mL/min/kg | Cl.Cl.Cl.Cl.NCCN(CCN)CCC[C@H](N)C(=O)N[C@H](CCc1ccccc1)C(=O)Nc1cnc2ccccc2c1 [Compound 46, 3-[(1S)-4-[bis(2-azaniumylethyl)amino]-1-{[(1R)-1-carbamoyl-3-phenylpropyl]carbamoyl}butan-1-aminium]quinolin-1-ium tetrachloride] | particularly attractive pharmacokinetic profiles
28 | 2200 ng/mL | 328 mL/min/kg | Cl.Cl.Cl.Cl.NCCN(CCN)C(=O)C[C@H](N)C(=O)NCC(=O)N[C@@H](CCc1ccccc1)C(=O)Nc1cnc2ccccc2c1 [Compound 348, 3-[(1S)-2-[bis(2-azaniumylethyl)carbamoyl]-1-[({[(1S)-1-carbamoyl-3-phenylpropyl]carbamoyl}methyl)carbamoyl]ethan-1-aminium]quinolin-1-ium tetrachloride] | –
29 | 1260 ng/mL | 70.8 mL/min/kg | CC(C)Oc1ccc(CNC(=O)[C@H](CCc2ccccc2)NC(=O)[C@@H](N)CC(=O)N(CCN)CCN)cc1 [Compound 237] | –
30 | 2680 ng/mL | 24.7 mL/min/kg | NCCN(CCN)C(=O)C[C@@H](N)C(=O)N[C@H](CCc1ccccc1)C(=O)Nc1cnc2ccccc2c1 [Compound 44, 3-[(1R)-2-[bis(2-azaniumylethyl)carbamoyl]-1-{[(1R)-1-carbamoyl-3-phenylpropyl]carbamoyl}ethan-1-aminium]quinolin-1-ium tetrachloride] | –
31 | 660 ng/mL | 145 mL/min/kg | NCCN(CCN)C(=O)C[C@H](N)C(=O)NCC(=O)N(Cc1ccc(C(F)(F)F)cc1)c1cnc2ccccc2c1 [Compound 357, 3-[(1S)-2-[bis(2-azaniumylethyl)carbamoyl]-1-{[({[4-(trifluoromethyl)phenyl]methyl}carbamoyl)methyl]carbamoyl}ethan-1-aminium]quinolin-1-ium tetrachloride] | –
32 | 2670 ng/mL | 98.2 mL/min/kg | CC(C)c1ccc(NC(=O)[C@H](CCc2ccccc2)NC(=O)[C@@H](N)CC(=O)N(CCN)CCN)cc1 [Compound 91] | –
33 | 3980 ng/mL | 105 mL/min/kg | Cl.Cl.Cl.Cl.N[C@@H](CCC(=O)N1C[C@H](N)[C@@H](N)C1)C(=O)N[C@H](Cc1ccc(C(F)(F)F)cc1)C(=O)Nc1cnc2ccccc2c1 [Compound 33, 3-[(1S)-1-{[(1R)-1-carbamoyl-2-[4-(trifluoromethyl)phenyl]ethyl]carbamoyl}-4-[(3S,4S)-3,4-diazaniumylpyrrolidin-1-yl]-4-oxobutan-1-aminium]quinolin-1-ium tetrachloride] | –
